In assay [1] the target is Epidermal growth factor receptor (Homo sapiens, UniProt P00533). The assay is described as follows: biochemical. In kind it is cell-based, Sf21.
Description: Inhibition of wild type N-terminal GST-tagged human EGFR cytoplasmic domain (669 to 1210 residues) expressed in baculovirus infected Sf21 cells using biotin-labeled TK substrate preincubated for 30 mins followed by substrate and ATP addition at Km concentration and further incubated for 20 mins by HTRF assay
The target of assay [2] is Epidermal growth factor receptor (Homo sapiens, UniProt P00533, L858R/T790M). The experiment in a line: biochemical. Type of assay: cell-based, Sf21.
The test system of a further assay is A-431. The experiment in a line: cells. The settings on record: Homo sapiens. In kind it is functional, cell-based.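 Note: antiproliferative test in A-431 cells carrying wild-type EGFR, with cell growth inhibition read by MTT assay.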
Assay [3] concerns NCI-H1975. The assay is described as follows: cells. In kind it is functional, cell-based. The conditions noted are these: Homo sapiens.
A further assay relates to U-87 MG. The assay is described as follows: cells. In kind it is functional, cell-based, U-87MG ATCC. The conditions noted are these: Homo sapiens.
The nature of a further assay: cells. In kind it is functional, tissue-based. The conditions noted are these: Homo sapiens, U87MG Human EGFR vIII.
Assay [4] is described as follows: Potency index, ratio of osimertinib IC50 to test compound IC50 for antiproliferative activity against human U87MG Human EGFR vIII cells overexpressing EGFRvIII mutant assessed as inhibition of cell proliferation by MTT assay. In kind it is functional. For orientation: Formazan colour is commonly taken as a measure of viable cells.
A short description of assay [5]: Potency index, ratio of lazertinib IC50 to test compound IC50 for antiproliferative activity against human U87MG Human EGFR vIII cells overexpressing EGFRvIII mutant assessed as inhibition of cell proliferation by MTT assay. In kind it is functional.
Assay [6] has as its system NCI-H1975. The assay is described as follows: Induction of apoptosis in human NCI-H1975 cells assessed as live cells at 5 uM by annexinV-FITC/propidium iodide staining based flow cytometry analysis (reference value: 98.6 %). In kind it is functional. On the technique in general: In flow cytometry, cells or beads pass a laser one at a time.
Assay [7] deals with NCI-H1975. The assay is described as follows: Induction of apoptosis in human NCI-H1975 cells assessed as early apoptotic cells at 5 uM by annexinV-FITC/propidium iodide staining based flow cytometry analysis (reference value: 0.53 %). Type of assay: functional.
In assay [8] the test system is NCI-H1975. The experiment in a line: Induction of apoptosis in human NCI-H1975 cells assessed as late apoptotic cells at 5 uM by annexinV-FITC/propidium iodide staining based flow cytometry analysis (reference value: 0.42 %). Type of assay: functional.
Assay [9] deals with NCI-H1975. The experiment in a line: Induction of apoptosis in human NCI-H1975 cells assessed as necrotic cells at 5 uM by annexinV-FITC/propidium iodide staining based flow cytometry analysis (reference value: 0.44 %). Type of assay: functional.
Assay [10] concerns NCI-H1975. The experiment in a line: Induction of apoptosis in human NCI-H1975 cells assessed as live cells at 10 uM by annexinV-FITC/propidium iodide staining based flow cytometry analysis (reference value: 98.6 %). In kind it is functional.
Assay [11] concerns NCI-H1975. The assay is described as follows: Induction of apoptosis in human NCI-H1975 cells assessed as early apoptotic cells at 10 uM by annexinV-FITC/propidium iodide staining based flow cytometry analysis (reference value: 0.53 %). Type of assay: functional.
Assay [12] has as its system NCI-H1975. The assay is described as follows: Induction of apoptosis in human NCI-H1975 cells assessed as late apoptotic cells at 10 uM by annexinV-FITC/propidium iodide staining based flow cytometry analysis (reference value: 0.42 %). In kind it is functional.
The subject of assay [13] is NCI-H1975. The experiment in a line: Induction of apoptosis in human NCI-H1975 cells assessed as necrotic cells at 10 uM by annexinV-FITC/propidium iodide staining based flow cytometry analysis (reference value: 0.44 %). Type of assay: functional.
Assay [14] relates to NCI-H1975. The experiment in a line: Induction of apoptosis in human NCI-H1975 cells assessed as live cells at 20 uM by annexinV-FITC/propidium iodide staining based flow cytometry analysis (reference value: 98.6 %). In kind it is functional.
The test system of assay [15] is NCI-H1975. The assay is described as follows: Induction of apoptosis in human NCI-H1975 cells assessed as early apoptotic cells at 20 uM by annexinV-FITC/propidium iodide staining based flow cytometry analysis (reference value: 0.53 %). Type of assay: functional.
In assay [16] the test system is NCI-H1975. The assay is described as follows: Induction of apoptosis in human NCI-H1975 cells assessed as late apoptotic cells at 20 uM by annexinV-FITC/propidium iodide staining based flow cytometry analysis (reference value: 0.42 %). In kind it is functional.
Assay [17] relates to NCI-H1975. The experiment in a line: Induction of apoptosis in human NCI-H1975 cells assessed as necrotic cells at 20 uM by annexinV-FITC/propidium iodide staining based flow cytometry analysis (reference value: 0.44 %). In kind it is functional.
For another assay, the system named is U87MG Human EGFR vIII. The experiment in a line: Induction of apoptosis in human U87MG Human EGFR vIII cells by annexinV-FITC/propidium iodide staining based flow cytometry analysis. Type of assay: functional, cell-based.
For assay [18], the target named is ALK tyrosine kinase receptor (Homo sapiens) (UniProt Q9UM73). The assay is described as follows: Inhibition of human recombinant GST-tagged ALK cytoplasmic domain (1058-1620 residues) expressed in baculovirus expression system at 1 uM by Z-lyte assay relative to control.
Assay [19] concerns the target Aurora kinase B (Homo sapiens) (UniProt Q96GD4). The experiment in a line: Inhibition of recombinant full length human His-tagged AURKB expressed in baculovirus expression system at 1 uM by Z-lyte assay relative to control.
Assay [20] deals with Serine/threonine-protein kinase B-raf (Homo sapiens) (UniProt P15056). The assay is described as follows: Inhibition of recombinant full length human GST-tagged BRAF expressed in baculovirus expression system at 1 uM by Z-lyte assay relative to control.
Assay [21] deals with Tyrosine-protein kinase BTK (Homo sapiens) (UniProt Q06187). The assay is described as follows: Inhibition of recombinant full length human His-tagged BTK expressed in baculovirus expression system at 1 uM by Z-lyte assay relative to control.
Assay [22] has as its target Macrophage colony-stimulating factor 1 receptor (Homo sapiens) (UniProt P07333). The experiment in a line: Inhibition of recombinant human His-tagged CSF1R (538 to 910 residues) expressed in baculovirus expression system at 1 uM by Z-lyte assay relative to control.
Assay [23] has as its target Receptor tyrosine-protein kinase erbB-2 (Homo sapiens) (UniProt P04626). The assay is described as follows: Inhibition of human recombinant His-tagged HER2 (676 to 1255 residues) expressed in baculovirus expression system at 1 uM by Z-lyte assay relative to control.
The target of assay [24] is Receptor tyrosine-protein kinase erbB-4 (Homo sapiens) (UniProt Q15303). The assay is described as follows: Inhibition of N-terminal GST-tagged human recombinant HER4 (708 to 993 residues) expressed in baculovirus expression system at 1 uM by Z-lyte assay relative to control.
Receptor tyrosine-protein kinase erbB-4 (Homo sapiens), sequence (Q15303 whole entry, the tested form may be a part): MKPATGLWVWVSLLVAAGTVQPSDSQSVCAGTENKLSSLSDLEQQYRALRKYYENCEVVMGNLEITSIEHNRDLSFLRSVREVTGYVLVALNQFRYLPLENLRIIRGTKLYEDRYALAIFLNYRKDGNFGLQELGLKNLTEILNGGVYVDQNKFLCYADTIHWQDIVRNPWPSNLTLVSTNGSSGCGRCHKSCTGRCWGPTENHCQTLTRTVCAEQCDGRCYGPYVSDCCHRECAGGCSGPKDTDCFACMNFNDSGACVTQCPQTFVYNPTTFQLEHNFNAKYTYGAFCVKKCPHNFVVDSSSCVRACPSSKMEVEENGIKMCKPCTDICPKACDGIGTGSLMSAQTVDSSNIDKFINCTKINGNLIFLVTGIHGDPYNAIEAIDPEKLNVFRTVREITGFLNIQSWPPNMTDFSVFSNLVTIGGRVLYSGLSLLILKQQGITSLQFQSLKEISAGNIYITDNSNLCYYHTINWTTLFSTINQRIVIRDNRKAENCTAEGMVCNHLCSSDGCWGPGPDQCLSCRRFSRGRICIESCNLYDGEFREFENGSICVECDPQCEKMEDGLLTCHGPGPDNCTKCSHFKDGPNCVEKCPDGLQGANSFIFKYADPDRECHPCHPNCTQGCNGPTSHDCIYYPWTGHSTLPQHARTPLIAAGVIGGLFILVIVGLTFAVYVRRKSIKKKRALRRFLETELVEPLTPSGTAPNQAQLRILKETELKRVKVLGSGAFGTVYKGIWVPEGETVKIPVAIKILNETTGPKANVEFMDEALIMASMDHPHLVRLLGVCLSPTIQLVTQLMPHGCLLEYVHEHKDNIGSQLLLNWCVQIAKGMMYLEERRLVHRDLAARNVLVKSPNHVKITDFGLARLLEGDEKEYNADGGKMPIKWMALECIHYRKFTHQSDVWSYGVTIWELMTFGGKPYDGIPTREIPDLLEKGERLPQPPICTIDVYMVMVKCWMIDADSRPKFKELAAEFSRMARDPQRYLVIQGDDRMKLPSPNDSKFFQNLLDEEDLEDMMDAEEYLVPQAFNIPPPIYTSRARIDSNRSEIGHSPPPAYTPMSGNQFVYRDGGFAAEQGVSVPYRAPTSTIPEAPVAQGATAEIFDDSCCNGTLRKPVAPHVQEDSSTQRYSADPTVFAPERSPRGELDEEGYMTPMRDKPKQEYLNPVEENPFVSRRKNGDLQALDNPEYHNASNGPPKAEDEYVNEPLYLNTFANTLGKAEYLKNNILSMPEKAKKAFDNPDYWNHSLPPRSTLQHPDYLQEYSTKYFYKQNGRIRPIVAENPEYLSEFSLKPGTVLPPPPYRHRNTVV
Assay [25] has as its target Tyrosine-protein kinase Fyn (Homo sapiens) (UniProt P06241). The experiment in a line: Inhibition of recombinant full length human C-terminal His-tagged FYN expressed in baculovirus expression system at 1 uM by Z-lyte assay relative to control.
Assay [26] deals with Insulin-like growth factor 1 receptor (Homo sapiens) (UniProt P08069). The assay is described as follows: Inhibition of recombinant human C-terminal His-tagged IGF1R (960 to 1397 residues) expressed in baculovirus expression system at 1 uM by Z-lyte assay relative to control.
Assay [27] concerns the target Tyrosine-protein kinase JAK2 (Homo sapiens) (UniProt O60674). The assay is described as follows: Inhibition of recombinant human GST-tagged JAK2 (809 to 1162 residues) expressed in baculovirus expression system at 1 uM by Z-lyte assay relative to control.
Assay [28] addresses Vascular endothelial growth factor receptor 2 (Homo sapiens) (UniProt P35968). The assay is described as follows: Inhibition of recombinant human His-tagged VEGFR2 (789 to 1356 residues) expressed in baculovirus expression system at 1 uM by Z-lyte assay relative to control.
For assay [29], the target named is Tyrosine-protein kinase Lck (Homo sapiens) (UniProt P06239). The experiment in a line: Inhibition of recombinant human LCK at 1 uM by Z-lyte assay relative to control.
The target of assay [30] is Mitogen-activated protein kinase 9 (Homo sapiens) (UniProt P45984). The assay is described as follows: Inhibition of recombinant full length human His-tagged MAPK9 expressed in baculovirus expression system at 1 uM by Z-lyte assay relative to control.
In assay [31] the target is Hepatocyte growth factor receptor (Homo sapiens) (UniProt P08581). The assay is described as follows: Inhibition of recombinant human N-terminal His-tagged cMET (956 to 1390 residues) expressed in baculovirus expression system at 1 uM by Z-lyte assay relative to control.
The target in assay [32] is BDNF/NT-3 growth factors receptor (Homo sapiens) (UniProt Q16620). The experiment in a line: Inhibition of recombinant human His-tagged NTRK2 (526 to 638 residues) expressed in baculovirus expression system at 1 uM by Z-lyte assay relative to control.

The source made the active and inactive calls. No cut-off for these calls is given here.

We go through three compounds from ChEMBL document CHEMBL4706488, “Design, synthesis and biological evaluation of 2-amino-4-(1,2,4-triazol)pyridine derivatives as potent EGFR inhibitors to overcome TKI-resistance” (Eur J Med Chem, 2020).

The IC50 is the concentration that inhibits the measured activity by half. Low values mean greater potency, high ones weaker potency. The inhibition is the drop in the measured response relative to a control, in per cent.

Epidermal growth factor receptor (Homo sapiens, UniProt P00533, L858R/T790M), sequence (P00533 25-1210 T790M/L858R limits assumed): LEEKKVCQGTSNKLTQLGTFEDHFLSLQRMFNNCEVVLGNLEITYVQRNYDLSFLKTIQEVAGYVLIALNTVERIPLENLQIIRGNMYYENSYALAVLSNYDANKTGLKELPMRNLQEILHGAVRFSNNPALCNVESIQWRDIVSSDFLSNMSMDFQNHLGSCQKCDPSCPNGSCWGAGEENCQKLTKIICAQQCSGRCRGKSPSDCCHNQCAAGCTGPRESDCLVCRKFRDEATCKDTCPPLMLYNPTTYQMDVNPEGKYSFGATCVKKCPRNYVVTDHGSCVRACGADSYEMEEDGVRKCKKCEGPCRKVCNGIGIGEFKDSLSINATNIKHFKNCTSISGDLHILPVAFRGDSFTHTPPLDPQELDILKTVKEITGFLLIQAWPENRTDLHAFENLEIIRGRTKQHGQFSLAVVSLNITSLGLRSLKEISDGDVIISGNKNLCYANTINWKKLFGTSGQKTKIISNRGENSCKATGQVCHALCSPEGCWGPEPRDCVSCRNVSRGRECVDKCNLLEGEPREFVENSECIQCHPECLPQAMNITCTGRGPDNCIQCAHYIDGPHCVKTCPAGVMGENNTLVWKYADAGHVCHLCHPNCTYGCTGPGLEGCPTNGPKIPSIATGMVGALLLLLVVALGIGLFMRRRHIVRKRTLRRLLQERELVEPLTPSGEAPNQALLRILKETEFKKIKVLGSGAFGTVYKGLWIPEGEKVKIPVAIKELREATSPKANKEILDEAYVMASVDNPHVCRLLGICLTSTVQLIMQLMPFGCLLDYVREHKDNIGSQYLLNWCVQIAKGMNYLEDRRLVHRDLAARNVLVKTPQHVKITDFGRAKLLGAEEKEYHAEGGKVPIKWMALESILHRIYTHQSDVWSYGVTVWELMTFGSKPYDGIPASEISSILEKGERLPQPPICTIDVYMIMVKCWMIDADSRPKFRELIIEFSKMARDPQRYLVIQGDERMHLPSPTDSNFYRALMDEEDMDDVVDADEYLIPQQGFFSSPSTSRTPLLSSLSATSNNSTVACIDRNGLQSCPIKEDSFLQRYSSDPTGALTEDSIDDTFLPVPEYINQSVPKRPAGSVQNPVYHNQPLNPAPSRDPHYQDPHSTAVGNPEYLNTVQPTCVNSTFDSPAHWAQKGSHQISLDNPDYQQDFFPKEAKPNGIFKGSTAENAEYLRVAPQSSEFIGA
Epidermal growth factor receptor (Homo sapiens, UniProt P00533), sequence (P00533 whole entry): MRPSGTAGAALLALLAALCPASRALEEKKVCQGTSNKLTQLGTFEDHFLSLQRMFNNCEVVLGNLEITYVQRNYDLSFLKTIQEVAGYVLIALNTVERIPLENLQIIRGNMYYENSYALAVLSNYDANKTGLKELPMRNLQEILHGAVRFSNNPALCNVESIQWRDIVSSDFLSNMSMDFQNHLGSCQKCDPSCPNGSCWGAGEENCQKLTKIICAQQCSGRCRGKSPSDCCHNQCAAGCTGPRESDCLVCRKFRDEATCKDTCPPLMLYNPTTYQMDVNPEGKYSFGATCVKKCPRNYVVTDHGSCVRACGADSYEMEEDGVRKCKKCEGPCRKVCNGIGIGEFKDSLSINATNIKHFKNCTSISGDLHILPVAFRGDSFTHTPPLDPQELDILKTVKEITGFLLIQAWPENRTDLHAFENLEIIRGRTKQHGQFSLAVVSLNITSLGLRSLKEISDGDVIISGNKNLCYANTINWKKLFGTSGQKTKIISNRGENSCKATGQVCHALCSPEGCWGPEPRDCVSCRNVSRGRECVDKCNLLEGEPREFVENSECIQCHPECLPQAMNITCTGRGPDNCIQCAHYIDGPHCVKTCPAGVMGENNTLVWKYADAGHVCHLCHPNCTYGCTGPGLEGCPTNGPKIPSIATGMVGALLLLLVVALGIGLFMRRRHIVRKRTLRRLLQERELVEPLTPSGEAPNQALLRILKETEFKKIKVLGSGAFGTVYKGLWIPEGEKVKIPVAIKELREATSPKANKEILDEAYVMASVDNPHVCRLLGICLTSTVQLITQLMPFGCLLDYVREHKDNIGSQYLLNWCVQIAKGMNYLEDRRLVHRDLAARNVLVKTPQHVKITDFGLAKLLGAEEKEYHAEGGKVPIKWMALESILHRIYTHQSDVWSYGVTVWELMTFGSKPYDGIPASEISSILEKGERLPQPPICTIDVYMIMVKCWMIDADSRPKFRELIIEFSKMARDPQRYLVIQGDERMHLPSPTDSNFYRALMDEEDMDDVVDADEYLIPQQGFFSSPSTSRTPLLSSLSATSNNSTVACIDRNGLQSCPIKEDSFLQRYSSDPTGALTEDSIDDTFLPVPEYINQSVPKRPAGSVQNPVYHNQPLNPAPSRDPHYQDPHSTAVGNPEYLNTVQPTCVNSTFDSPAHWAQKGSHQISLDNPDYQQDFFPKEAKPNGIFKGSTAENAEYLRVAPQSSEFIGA
Receptor tyrosine-protein kinase erbB-2 (Homo sapiens), sequence (P04626 whole entry, the tested form may be a part): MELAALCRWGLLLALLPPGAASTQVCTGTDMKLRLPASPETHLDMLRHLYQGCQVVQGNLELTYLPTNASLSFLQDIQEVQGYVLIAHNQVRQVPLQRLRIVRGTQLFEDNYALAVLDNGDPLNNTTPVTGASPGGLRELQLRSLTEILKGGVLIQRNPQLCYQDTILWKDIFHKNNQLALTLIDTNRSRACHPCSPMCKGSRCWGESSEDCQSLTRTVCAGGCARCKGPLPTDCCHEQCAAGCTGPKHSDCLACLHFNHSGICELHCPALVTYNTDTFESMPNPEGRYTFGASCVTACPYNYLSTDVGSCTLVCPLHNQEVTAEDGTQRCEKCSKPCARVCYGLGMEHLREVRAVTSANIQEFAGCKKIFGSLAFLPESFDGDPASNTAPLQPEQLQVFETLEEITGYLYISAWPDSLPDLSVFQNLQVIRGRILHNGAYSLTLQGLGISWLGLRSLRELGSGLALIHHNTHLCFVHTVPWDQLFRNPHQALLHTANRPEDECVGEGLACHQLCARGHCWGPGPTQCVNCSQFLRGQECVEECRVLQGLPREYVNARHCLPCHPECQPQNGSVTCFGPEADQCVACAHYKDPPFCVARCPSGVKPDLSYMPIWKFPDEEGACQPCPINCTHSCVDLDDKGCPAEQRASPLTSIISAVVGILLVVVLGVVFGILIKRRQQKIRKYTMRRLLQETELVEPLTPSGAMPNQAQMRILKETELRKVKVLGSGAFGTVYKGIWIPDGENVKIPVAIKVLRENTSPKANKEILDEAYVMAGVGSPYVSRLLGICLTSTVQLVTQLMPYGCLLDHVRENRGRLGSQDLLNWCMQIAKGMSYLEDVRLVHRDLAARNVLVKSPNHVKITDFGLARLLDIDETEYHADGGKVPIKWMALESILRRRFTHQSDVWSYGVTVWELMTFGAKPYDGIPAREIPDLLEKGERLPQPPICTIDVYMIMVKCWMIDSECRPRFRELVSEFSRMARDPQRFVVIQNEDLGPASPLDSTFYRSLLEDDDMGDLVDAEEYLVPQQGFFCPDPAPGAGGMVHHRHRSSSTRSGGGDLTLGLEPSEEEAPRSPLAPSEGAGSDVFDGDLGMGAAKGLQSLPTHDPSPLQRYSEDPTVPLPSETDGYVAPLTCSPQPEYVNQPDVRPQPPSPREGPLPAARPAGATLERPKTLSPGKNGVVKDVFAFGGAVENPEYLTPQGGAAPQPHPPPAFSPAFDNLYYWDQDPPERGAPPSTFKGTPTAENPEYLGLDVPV
Description for A-431: Antiproliferative activity against human A-431 cells harboring wild type EGFR assessed as inhibition of cell growth by MTT assay
Description for U-87 MG: Antiproliferative activity against human U-87MG cells harboring wild type EGFR assessed as inhibition of cell growth by MTT assay

In the case of `C=CC(=O)Nc1cc(Nc2cc(-n3c(SC)nnc3-c3ccc(F)cc3)ccn2)ccc1N(C)CCN(C)C`, the IC50 in assay [1] was 0.156 µM; in [2] it was 0.213 µM; in the assay on A-431 it was 6 µM; in the assay on NCI-H1975 [3], 5.3 µM; with U-87 MG it was 2.4 µM; in the assay “cells”, 4.1 µM. Moreover, the entries for the “Ratio IC50” value in assay [4] and in assay [5] were 3 and 25, respectively. For the same compound, the Activity amounted to 93.8% in the assay on NCI-H1975 [6]; 2.52% in the assay with NCI-H1975 [7]; 2.77% in the assay with NCI-H1975 [8]; 0.92% in the assay with NCI-H1975 [9]; 91.4% in the assay with NCI-H1975 [10]; 2.63% with NCI-H1975 [11]. Also, the Activity is listed as 3.86% with NCI-H1975 [12]; 2.14% in the assay on NCI-H1975 [13]; 32.3% in the assay on NCI-H1975 [14]; 18% with NCI-H1975 [15]; 39% with NCI-H1975 [16]; 10.7% in the assay on NCI-H1975 [17]. Besides, the outcome in the assay on U87MG Human EGFR vIII was inactive.
In the case of `C=CC(=O)Nc1cc(Nc2cc(-n3c(SC)nnc3-c3ccc(F)cc3)ccn2)c(OC)cc1N(C)CCN(C)C`, the half-inhibitory concentration (IC50) in assay [1] turned out to be 0.0893 µM; in assay [2], 0.0431 µM; in the assay with A-431, 4 µM; in the assay with NCI-H1975 [3] it was 5.4 µM; with U-87 MG it was 2.8 µM; in the assay “cells”, 18 µM. Moreover, the inhibition was 10% in [18]; 13% in assay [19]; -7% in assay [20]; 4% in assay [21]; 12% in [22]; 16% in assay [23]. Besides, the inhibition came out at 76% in [24]; 5% in [25]; 10% in assay [26]; 12% in assay [27]; 18% in [28]; 11% in assay [29]. Also, the inhibition in assay [30] came to 7%; in assay [31], 9%; in assay [32], 17%. In addition, the Activity worked out at 97.2% in the assay on NCI-H1975 [6]; 1.28% with NCI-H1975 [7]; 1.1% in the assay with NCI-H1975 [8]; 0.44% in the assay on NCI-H1975 [9]; 95.5% in the assay with NCI-H1975 [10]; 1.69% with NCI-H1975 [11]. For the same compound, the Activity with NCI-H1975 [12] came out at 1.87%; in the assay on NCI-H1975 [13], 0.91%; in the assay on NCI-H1975 [14], 84%; with NCI-H1975 [15] it was 4.83%; in the assay with NCI-H1975 [16] it was 7.14%; in the assay with NCI-H1975 [17], 3.99%. The result in the assay with U87MG Human EGFR vIII was inactive.
Turning to `C=CC(=O)Nc1cc(Nc2nccc(-n3cc(CN(C)C)c(-c4ccccc4)n3)n2)c(OC)cc1N1CCOCC1` [LAZERTINIB], the IC50 in assay [1] was 0.0346 µM; in [2], 0.0027 µM; with A-431, 3.6 µM; in the assay with NCI-H1975 [3], < 1 µM; with U-87 MG, 33.2 µM; in “cells”, > 100 µM.
